Test results from article PMC8783508, “A novel D-amino acid peptide with therapeutic potential (ISAD1) inhibits aggregation of neurotoxic disease-relevant mutant Tau and prevents Tau toxicity in vitro” (Alzheimer's Research & Therapy, 2022).
Non-standard residues stand in square brackets, D forms with d. Residues, ends and D or L forms follow the SMILES beside them.

What was measured:
[1] = system: Tau^FLΔK, Tau^FL-A152T, Tau^FL-P301L; assay: Pelleting assay and western blot, full-length Tau mutants; assay type: biochemical, human; conditions: 10 µM Tau mutant, 100 µM peptide, 24 hours, K9JA western blot
Protocol: After the ThS assay (end time point, 24 h), 70 μl of each sample (pooled together from 2 wells) was centrifuged in a Beckmann coulter (Optima Max Ultra Centrifuge, TLA 100.3 rotor) at 61,000 rpm for 60 min at 4 °C. After centrifugation, the supernatant was separated from the pellet. Then, the pellet was dissolved in BES buffer in an equal volume as the supernatant. For the following western blot, 12-μl samples were mixed with 3-μl SDS-sample buffer (5x), heated for 5 min at 95 °C, and loaded onto a 8–16% SDS tris-glycine-gel (BioRad, Feldkirchen, Germany). The proteins were transferred to a polyvinylidene fluoride (PVDF) membrane. After the transfer, the membrane was blocked in 5% non-fat dry milk. After washing the membrane three times for 10 min with TBST, the primary pan-Tau K9JA antibody (1:5000; Agilent, Waldbronn, Germany) was incubated for 1 h at RT with gentle agitation, followed by again 3-times washing with TBST. […] The quantification of intensities was performed using ImageJ.
S-Figure 4-6: ISAD1 induces the formation of non-fibrillar large aggregates of Tau mutants. […] (C) The intensity of protein amount in supernatant and pellet was quantified by ImageJ for different Tau mutants such as Tau^FLΔK (Sup. Fig. 2C), Tau^FL-^A152T (Sup. Fig. 3C) or Tau^FL^-P^301L (Sup. Fig. 4C).

N2a-Tau^RDΔK cells = assay: LDH release with the peptides alone; assay type: cell-based; conditions: 25, 50, 100, 250 μM peptide, 24 h, n = 3
Protocol: N2a cells expressing Tau^RDΔK were plated on poly D-lysine-coated 96-well plates with a density of 25,000 cells/well. At 70 to 80% confluence, the cells were treated for 24 h with various concentrations of D-peptides (25, 50, 100, and 250 μM) or Tau^RDΔK (10 μM final concentration) in the presence of ISAD1 and ISAD1rev (100 μM final concentration). The ability of D-peptides to neutralize the toxicity of Tau^RDΔK oligomers/fibrils was investigated by measuring the amount of released LDH (Roche Diagnostics, Mannheim, Germany). Therefore, 50 μL of each well was transferred to a fresh 96-well plate and 50 μL of reagent was added followed by a 30-min incubation period at RT. Finally, 50 μL of stop solution (1 N HCl) was added and absorbance was recorded at 492 nm (TECAN spectrofluorometer, Männedorf, Switzerland). Absorbance values were corrected by background values and the percentage of LDH release was calculated.

[2] = system: N2a cells expressing Tau^RDΔK; assay: Uptake of FAM-labeled D-peptides by confocal microscopy; assay type: cell-based; conditions: 25 μM FAM-labeled peptide, 24 h, fixed cells
Protocol: In order to become potentially suitable for therapeutic development, the D-peptides should be internalized by neurons. To test this, 25 μM FAM-labeled ISAD1 or its inversed form was added to cells that express pro-aggregant mutant Tau^RDΔK for 24 h followed by cell fixation.
Fig. 7 Uptake of fluorescence-labeled D-peptides analyzed by confocal microscopy. 25 μM FAM-labeled peptides (ISAD1 and ISArev) were incubated with N2a cells expressing Tau^RDΔK for 24 h. The uptake of D-peptides was analyzed by confocal microscopy. As shown in the representative images, the peptides are mainly localized in the cytoplasm (A1, B1 Draq5 shown as red; A2 ISAD1-FAM, B2 ISAD1rev-FAM; A3, B3 merged images)

Tau^FL-A152T = target: T1, Tau^FL-A152T (Homo sapiens, UniProt P10636, A469T); assay: Fibrillization of Tau^FL-A152T monitored by ThS assay; assay type: biochemical; conditions: Tau:peptide = 1:1; 1:5; 1:10
T1 construct: Tau^FL-A152T Full-length Tau mutant A152T
Protocol: (§1) For Tau fibrillization inhibition assays, 10 μM Tau mutant protein (Tau^RDΔK, Tau^FLΔK, Tau^FL-A152T, Tau^FL-P301L) was incubated in BES buffer (N,N-bis(2-hydroxyethyl)-2-aminoethanesulfonic acid, pH 7) in the presence of 2.5 μM heparin at 37 °C for 24 h with and without novel D-peptides (ISAD1 and ISAD1rev) at different concentrations (1 nM to 200 μM). Final concentration of 20 μM ThS was used for monitoring fibrillization. The assay was performed with 40-μl sample volume per well in a 384-well microtiter plate (Thermo LabSystems, Dreieich, Germany). The fibrillization of Tau was monitored by ThS and the relative fluorescence intensity of ThS was read out at 440 excitation/521 emission nm in a Tecan micro titer plate reader (Tecan, Männedorf, Switzerland).

Tau^FL-P301L = target: T2, Tau^FL-P301L (Homo sapiens, UniProt P10636, P618L); assay: Fibrillization of Tau^FL-P301L monitored by ThS assay; assay type: biochemical; conditions: Tau:peptide = 1:1; 1:5; 1:10
T2 construct: Tau^FL-P301L Full-length Tau mutant P301L
Protocol: as §1

T2 sequence (P10636 1-441 isoform P10636-8 P301L): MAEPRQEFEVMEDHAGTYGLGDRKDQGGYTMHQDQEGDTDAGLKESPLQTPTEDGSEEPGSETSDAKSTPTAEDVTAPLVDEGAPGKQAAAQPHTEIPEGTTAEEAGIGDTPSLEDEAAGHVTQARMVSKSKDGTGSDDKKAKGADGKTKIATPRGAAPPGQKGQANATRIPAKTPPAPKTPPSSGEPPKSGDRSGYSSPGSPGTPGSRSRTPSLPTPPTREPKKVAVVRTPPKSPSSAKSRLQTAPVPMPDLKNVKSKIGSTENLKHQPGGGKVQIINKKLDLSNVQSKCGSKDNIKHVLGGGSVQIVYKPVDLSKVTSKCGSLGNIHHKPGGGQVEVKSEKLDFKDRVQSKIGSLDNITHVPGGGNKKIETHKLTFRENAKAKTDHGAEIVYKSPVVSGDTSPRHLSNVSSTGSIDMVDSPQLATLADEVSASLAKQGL
T1 sequence (P10636 1-441 isoform P10636-8 A152T): as the sequence (P10636 1-441 isoform P10636-8 P301L) above, with A152T, L301P counted along it

In the case of `CC(C)C[C@@H](NC(=O)[C@@H](CO)NC(=O)[C@@H](CC(C)C)NC(=O)[C@H](NC(=O)[C@@H](CC(=O)O)NC(=O)[C@@H](C)NC(=O)[C@@H](C)NC(=O)[C@H](N)CO)[C@H](C)O)C(=O)N[C@H](CCCCN)C(=O)N[C@H](Cc1ccccc1)C(=O)N[C@@H](C(=O)N[C@H](CO)C(=O)O)C(C)C` [ISAD1rev] (H-[dS][dA][dA][dD][dT][dL][dS][dL][dK][dF][dV][dS]-OH; N-terminus and C-terminus assumed), the “Distribution of full-length Tau mutants between pellet and supernatant” value [1] is reported as “more fractions in the supernatant”, the “Cytotoxicity, LDH release” value (N2a-Tau^RDΔK cells) is reported as “do not induce toxic effects” and the Intracellular localisation [2] is reported as “accumulated in the cytosol but were excluded from the nucleus”. For the same molecule, the Uptake by cells [2] was “almost all cells took up the D-peptides”, the “Inhibition of Tau^FL-A152T fibrillization, in words” value (Tau^FL-A152T) was “weak inhibitory effects” and the “Inhibition of Tau^FL-P301L fibrillization, in words” value (Tau^FL-P301L) was “weak inhibitory effects”.
